Source: patent US20140113904A1, “TREATMENT OF CANCER WITH TOR KINASE INHIBITORS” (SIGNAL PHARMACEUTICALS, LLC, priority 2012, published 2014)

How the values were obtained:
Akt(T308) = experiment: Phospho-Akt(T308) in PC3 cell lysates, MSD; format: cell-based, human; conditions: PC3, 1 hour exposure; read-out: p-Akt(T308) IC50
Source text: (§1) The direct substrate for TORC1 was 4E-BP 1(T46) and indirect downstream substrate was S6RP(S235/S236). The direct substrate for TORC2 was Akt(S473) and indirect downstream substrates measured were GSK3β(S9) and PRAS40(T246). Additionally, the phosphorylation status of Akt(T308), a phosphorylation site for PDK1 was monitored.
(§2) MSD® biomarker detection assays provide a rapid and convenient method for measuring the total and phosphorylated levels of protein targets within a single small volume sample. These assays are available in both single-plex and multiplex formats. In a single-plex assay, an antibody for a specific protein target is coated on one electrode (or spot) per well. […] MSD Read Buffer that provides the appropriate chemical environment for ECL is added and the plate is read using an MSD SECTOR™ Imager. […] The instrument measures intensity of the emitted light to afford a quantitative measure of the amount of phosphorylated Akt or S6RP present in the sample. […]
(§3) The assay plate was incubated with 150 μL of MSD Blocker A Solution for 1 hour with shaking at room temperature. […] Then 150 μL of 1×MSD Read Buffer T was added to each well. The plate was read on the SECTOR Imager plate reader. The Excel data was transferred to Activity Base and IC50 values were calculated.
(§4) All data was analyzed using XLfit from IDBS. […]

Akt(S473) = experiment: Phospho-Akt(S473) in PC3 cell lysates, MSD; format: cell-based, human; conditions: PC3, 1 hour exposure; read-out: p-Akt (S473) IC50
Source text: as §1, §2, §3, §4

GSK3β(S9) = experiment: Phospho-GSK3β(S9) in PC3 cell lysates, Luminex multiplex; format: cell-based, human; conditions: PC3, 1 hour exposure; read-out: p-GSK3β (S9) IC50
Source text: as §1
The multiplex Luminex assay format differs from conventional enzyme-linked immunosorbent assay (ELISA) in that the multiplex capture antibody is attached to a polystyrene bead whereas the ELISA capture antibody is attached to the microplate well. The use of the suspension bead-based technology enables the multiplexing capabilities of the Luminex assays. The xMAP® technology uses 5.6 micron polystyrene microspheres, which are internally dyed with red and infrared fluorophores of differing intensities. Each bead is given a unique number, or bead region, allowing differentiation of one bead from another. Beads covalently bound to different specific antibodies can be mixed in the same assay, utilizing a 96-well microplate format. At the completion of the sandwich immunoassay, beads can be read, using the Luminex 100™ or Luminex 200 detection system, in single-file by dual lasers for classification and quantification of each analyte. […]

S6RP (S235/236) = experiment: Phospho-S6RP (S235/S236) in PC-3 cell lysates, MSD (Compound 2); format: cell-based; conditions: Homo sapiens; PC-3, 1 hour; read-out: mTORC1 S6RP (S235/236) IC50

Structure (SMILES)	IC50 (Akt(T308)) [µM]	IC50 (Akt(S473)) [µM]	IC50 (GSK3β(S9)) [µM]	IC50 (S6RP (S235/236)) [µM]
CO[C@H]1CC[C@H](N2C(=O)CNc3ncc(-c4ccc(C(C)(C)O)nc4)nc32)CC1 [Compound 1, 7-(6-(2-hydroxypropan-2-yl)pyridin-3-yl)-1-((1r,4r)-4-methoxycyclohexyl)-3,4-dihydropyrazino-[2,3-b]pyrazin-2(1H)-one]	0.13	0.01	0.23	
CCN1C(=O)CNc2ncc(-c3ccc(-c4nc[nH]n4)nc3C)nc21 [Compound 2, 1-ethyl-7-(2-methyl-6-(1H-1,2,4-triazol-3-yl)pyridin-3-yl)-3,4-dihydropyrazino[2,3-b]pyrazin-2(1H)-one]				0.023 ± 0.007
